Experiments:
Format in all cases: cell-based
Parameters in all cases: expressed in transfected cells; host or cells: HEK293 cells transfected with VIPR2 in pCDNA3.1 (as described)
[1] = target: T1, VIPR2 (Homo sapiens, UniProt P41587); assay: Inhibition of VIP-induced cAMP elevation (% Activity cAMP); settings: Batch 2
T1 sequence (P41587 24-438): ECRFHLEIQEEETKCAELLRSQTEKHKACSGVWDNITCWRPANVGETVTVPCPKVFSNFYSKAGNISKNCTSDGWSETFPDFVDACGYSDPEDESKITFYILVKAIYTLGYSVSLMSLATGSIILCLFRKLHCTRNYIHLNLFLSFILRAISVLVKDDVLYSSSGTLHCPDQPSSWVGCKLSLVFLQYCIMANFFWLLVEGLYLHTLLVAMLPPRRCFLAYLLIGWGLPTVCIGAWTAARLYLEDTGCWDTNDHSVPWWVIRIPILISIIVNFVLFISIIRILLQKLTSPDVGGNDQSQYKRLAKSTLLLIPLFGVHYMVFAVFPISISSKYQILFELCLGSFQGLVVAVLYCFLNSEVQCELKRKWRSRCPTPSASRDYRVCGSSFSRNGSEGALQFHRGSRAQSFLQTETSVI
From the text: (§1) In a further non-limiting embodiment of the invention, the ability of a compound to inhibit VIPR2 and thereby […] a VIP-induced increase in cAMP may be measured using a Homogeneous Time-Resolved Fluorescence (“HTRF® assay; Cisbio Bioassays) as used in Chu et al., 2010, Molecular Pharmacol. 7795-101. In a method as used in Chu et al., 2010, Molecular Pharmacol. 7795-101, HEK293 cells may be transfected with nucleic acid encoding VIPR2, for example human VIPR2 (“hVIPR2”), for example comprised in a vector such as pCDNA3.1 vector. Successful transformants may then be selected, for example using 800 μg/ml G418. Clonal stable cell lines may then be generated by limited dilution to single cells and then may be clonally expanded and tested for VIP -dependent cAMP response. For the cAMP assay, about 3000-15,000 cells (in about 4-25 μl) may be placed in a well of an assay plate. The next day, inhibitor or test inhibitor and VIP may be added in a volume about 1-2 percent of the initial volume. Assay plates may then be returned to a cell incubator for 30 min before addition of a one-half volume of cAMP conjugate and, relative to the amount of cAMP conjugate, an equal volume of anti-cAMP conjugate (Cisbio). After at least 1 h of room-temperature incubation, HTRF signal may be read, for example using Viewlux or EnVision (PerkinElmer Life and Analytical Sciences, Waltham, Mass.). The ratio of […] at 665 nm and 620 nm times 10,000 may be calculated and plotted.
(§2) A series of compounds were prepared using a synthetic method analogous to that set forth in Scheme 1, above, and then tested for their ability to inhibit VIP-induced cAMP elevation and β-arrestin recruitment.
(§3) A series of compounds were prepared using a synthetic method analogous to that set forth in Scheme 1, above, and then tested for their ability to inhibit VIP-induced cAMP elevation and β-arrestin recruitment, as described herein (Discoverx Corporation, Fremont, Calif., US). Compound activities were also tested in a BRET-based assay, as described herein. The results are shown below in Tables 1-4, above.

[2] = target: T1, VIPR2; assay: % Activity: inhibition of VIP-induced cAMP elevation and β-arrestin recruitment (Table 2)
From the text: as §1
(§4) In a further non-limiting embodiment of the invention, the ability of a compound to inhibit VIPR2 GPCR activity may be tested, for example, using the PathHunter® eXpress β-Arrestin GPCR system (Discoverx Corporation, Fremont, Calif., US), as used by Chu et al., 2010, Molecular Pharmacol. 7795-101. In this assay, β-Arrestin is fused to the “Enzyme Acceptor” (“EA”), an N-terminal deletion mutant of β-gal, and the GPCR of interest is fused to a smaller (42 amino acids), weakly complementing portion of the β-gal enzyme (termed “ProLink™”). In cells that stably express these fusion proteins, the interaction of β-Arrestin and the GPCR following ligand stimulation forces the complementation of the two β-gal fragments resulting in the formation of a functional enzyme that converts substrate to detectable signal. In the absence of an interaction between the GPCR and β-Arrestin, the enzyme activity is low due to the low affinity of the two enzyme fragments. For example, a nucleic acid encoding VIPR2, for example hVIPR2, may be cloned into the ProLink vector (DiscoveRx) for GPCR-ProLink fusion protein production. Parental HEK293 cells that stably express β-arrestin2-β-gal-EA fusion protein (DiscoveRx) may be detached and transiently transfected with the VIPR2-containing vector using Fugene6 transfection reagent in suspension mode. Transfected cells in assay medium may be plated into test plates, for example at 15,000 cells/25 μl/well. After overnight incubation, 500 nl of an inhibitor or test inhibitor may be introduced into the test plate followed by 2 h incubation at 37° C., 5% CO2. Flash detection reagents may be added at 12.5 μl/well. After 5 min to 1 h of room-temperature incubation, the cell plates may be read on CLIPR (PerkinElmer Life and Analytical Sciences)or Acquest (Molecular Devices, Sunnyvale, Calif.) for luminescence signal.
as §3

[3] = target: T1, VIPR2; assay: Inhibition of VIP-induced β-arrestin recruitment (% Activity Arrestin); settings: Batch 2
From the text: as §4, §2, §3

Row | SMILES | inhibition at 0.5 µM [1] | inhibition at 1 µM [1] | inhibition at 5 µM [1] | % Activity [2] | inhibition at 0.5 µM [3] | inhibition at 1 µM [3] | inhibition at 5 µM [3]
1 | CCCCNC(=O)[C@H](Cc1ccccc1)C[C@H](O)CNS(=O)(=O)c1ccc([N+](=O)[O-])cc1 [Compound B7A] | 0.9% | 5.1% | 5.3% | 9.55% | -5.6% | 1.9% | 13.8%
2 | CCCCNC(=O)[C@@H](Cc1ccccc1)C[C@H](O)CNS(=O)(=O)c1ccc([N+](=O)[O-])cc1 [Compound B7B] | -1.5% | 0.6% | 6.2% | 13.45% | 26.8% | 20.4% | 20.7%
3 | CC1CCC(NC(=O)[C@H](Cc2ccccc2)C[C@H](O)CNS(=O)(=O)c2ccc([N+](=O)[O-])cc2)CC1 (stereo partly drawn) [Compound B8A] | -5% | -2.5% | -2.8% | −1.2% | 13.4% | -1.3% | 0.4%
4 | CC1CCC(NC(=O)[C@@H](Cc2ccccc2)C[C@H](O)CNS(=O)(=O)c2ccc([N+](=O)[O-])cc2)CC1 (stereo partly drawn) [Compound B8B] | -0.7% | 9.5% | 5.1% | 2.15% | 5.7% | -0.4% | -0.8%
5 | O=C([C@H](Cc1ccccc1)C[C@H](O)CNS(=O)(=O)c1ccc([N+](=O)[O-])cc1)N1CCOCC1 [Compound B9A] | -3.8% | -1.6% | 2.4% | 0.6% | -4.3% | 8.9% | -1.2%
6 | O=C([C@@H](Cc1ccccc1)C[C@H](O)CNS(=O)(=O)c1ccc([N+](=O)[O-])cc1)N1CCOCC1 [Compound B9B] | -5.8% | 10.4% | 3% | 1.65% | 7% | -13% | 0.3%
7 | C[C@H](CC(C)(C)C)NC(=O)[C@H](Cc1ccccc1)C[C@H](O)CNS(=O)(=O)c1ccc([N+](=O)[O-])cc1 [Compound B10A] | -7.9% | 4.4% | -0.1% | −5.2% | 23.3% | 3% | -10.3%
8 | C[C@H](CC(C)(C)C)NC(=O)[C@@H](Cc1ccccc1)C[C@H](O)CNS(=O)(=O)c1ccc([N+](=O)[O-])cc1 [Compound B10B] | 6.5% | 19.6% | 7.4% | 13.8000% | 36.8% | 27.9% | 20.2%
9 | NC(=O)[C@H](Cc1ccccc1)C[C@H](O)CNS(=O)(=O)c1ccc([N+](=O)[O-])cc1 [Compound B12A] | 6.7% | 3.6% | 2.1% | −10.45% | -6.5% | -16.6% | -23%
10 | NC(=O)[C@@H](Cc1ccccc1)C[C@H](O)CNS(=O)(=O)c1ccc([N+](=O)[O-])cc1 [Compound B12B] | 14.6% | 12.6% | 9.7% | 8.35% | 3.5% | -9.8% | 7%
11 | O=C(NC1CCCc2ccccc21)[C@H](Cc1ccccc1)C[C@H](O)CNS(=O)(=O)c1ccc([N+](=O)[O-])cc1 (stereo partly drawn) [Compound B13A] | 8.8% | 12.4% | 17.5% | 13.85% | 3.3% | 7.4% | 10.2%
12 | O=C(NC1CCCc2ccccc21)[C@@H](Cc1ccccc1)C[C@H](O)CNS(=O)(=O)c1ccc([N+](=O)[O-])cc1 (stereo partly drawn) [Compound B13B] | 5.1% | 6.6% | 17.4% | 9.0000% | 4.8% | 6.9% | 0.6%
13 | O=C(NCc1ccc(F)cc1F)[C@H](Cc1ccccc1)C[C@H](O)CNS(=O)(=O)c1ccc([N+](=O)[O-])cc1 [Compound B14A] | 2.4% | 7.2% | 23.6% | 27.2000% | -19.5% | -13.3% | 30.8%
14 | O=C(NCc1ccc(F)cc1F)[C@@H](Cc1ccccc1)C[C@H](O)CNS(=O)(=O)c1ccc([N+](=O)[O-])cc1 [Compound B14B] | -5.4% | 4.7% | 18.2% | 21.1000% | 23.9% | 20% | 24%
15 | CCN(CC)C(=O)[C@H](Cc1ccccc1)C[C@H](O)CNS(=O)(=O)c1ccc([N+](=O)[O-])cc1 [Compound B15A] | -8.1% | -6.1% | -4.3% | 0.7% | -5.4% | 7.9% | 5.7%
16 | CCN(CC)C(=O)[C@@H](Cc1ccccc1)C[C@H](O)CNS(=O)(=O)c1ccc([N+](=O)[O-])cc1 [Compound B15B] | 0.5% | -8.4% | -10.5% | −6.6% | -3.6% | 1.2% | -2.7%
17 | CCNC(=O)[C@H](Cc1ccccc1)C[C@H](O)CNS(=O)(=O)c1ccc([N+](=O)[O-])cc1 [Compound B16A] | -7.1% | -0.4% | -6.2% | −9.25% | 15.2% | 0.1% | -12.3%
18 | CCNC(=O)[C@@H](Cc1ccccc1)C[C@H](O)CNS(=O)(=O)c1ccc([N+](=O)[O-])cc1 [Compound B16B] | -13.2% | -0.9% | -22.2% | −14.9% | -10% | 6% | -7.6%

From patent US20150239831A1, “INHIBITORS OF CENTRAL NERVOUS SYSTEM VASOACTIVE INHIBITORY PEPTIDE RECEPTOR 2” (The Trustees Of Columbia University In The City Of New York, priority 2012, published 2015)
